Experimental data from ChEMBL document CHEMBL1145354, “Benzopyran sulfonamides as KV1.5 potassium channel blockers” (Bioorg Med Chem Lett, 2007).

How the values were obtained:
[1] = biological target: Potassium voltage-gated channel subfamily A member 5 (Homo sapiens, UniProt P22460); test: Inhibition of human Kv1.5 channel expressed in mouse L929 cells; format: cell-based
[2] = biological target: hERG (KCNH2) (Homo sapiens, UniProt Q12809); test: Inhibition of human ERG expressed in human embryonic kidney cells at 10 uM; format: cell-based; conditions: human embryonic kidney cells expressing human ERG
Chain of hERG (KCNH2) (Q12809 whole entry): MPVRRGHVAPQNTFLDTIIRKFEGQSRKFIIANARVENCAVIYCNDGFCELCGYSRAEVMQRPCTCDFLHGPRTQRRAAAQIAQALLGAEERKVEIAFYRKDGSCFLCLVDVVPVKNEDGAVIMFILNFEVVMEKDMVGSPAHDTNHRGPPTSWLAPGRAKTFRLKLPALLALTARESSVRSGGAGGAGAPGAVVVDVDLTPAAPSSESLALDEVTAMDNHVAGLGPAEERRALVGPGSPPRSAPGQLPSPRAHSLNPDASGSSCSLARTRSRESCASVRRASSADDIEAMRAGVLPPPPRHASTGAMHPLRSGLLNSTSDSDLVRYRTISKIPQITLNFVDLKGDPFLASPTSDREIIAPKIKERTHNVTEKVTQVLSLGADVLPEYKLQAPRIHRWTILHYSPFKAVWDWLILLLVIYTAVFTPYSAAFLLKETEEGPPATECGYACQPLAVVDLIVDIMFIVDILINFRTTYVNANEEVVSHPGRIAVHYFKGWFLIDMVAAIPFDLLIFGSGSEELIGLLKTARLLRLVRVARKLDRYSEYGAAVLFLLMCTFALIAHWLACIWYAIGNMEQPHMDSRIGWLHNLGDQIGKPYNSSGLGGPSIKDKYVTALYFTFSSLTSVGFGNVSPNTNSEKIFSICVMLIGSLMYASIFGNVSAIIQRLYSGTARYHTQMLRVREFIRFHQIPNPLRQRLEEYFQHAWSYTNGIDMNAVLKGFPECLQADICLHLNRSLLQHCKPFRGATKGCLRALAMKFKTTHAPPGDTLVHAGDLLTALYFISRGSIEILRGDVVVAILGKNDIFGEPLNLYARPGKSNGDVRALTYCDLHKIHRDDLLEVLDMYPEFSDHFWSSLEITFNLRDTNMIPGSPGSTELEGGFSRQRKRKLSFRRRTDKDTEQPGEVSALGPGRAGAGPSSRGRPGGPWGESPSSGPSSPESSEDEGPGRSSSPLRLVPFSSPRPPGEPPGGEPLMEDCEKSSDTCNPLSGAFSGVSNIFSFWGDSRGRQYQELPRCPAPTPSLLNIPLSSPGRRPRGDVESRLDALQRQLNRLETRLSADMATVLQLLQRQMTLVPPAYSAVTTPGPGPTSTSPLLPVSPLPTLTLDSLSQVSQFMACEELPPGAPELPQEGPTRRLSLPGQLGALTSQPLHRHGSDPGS

Chain of Potassium voltage-gated channel subfamily A member 5 (P22460 whole entry): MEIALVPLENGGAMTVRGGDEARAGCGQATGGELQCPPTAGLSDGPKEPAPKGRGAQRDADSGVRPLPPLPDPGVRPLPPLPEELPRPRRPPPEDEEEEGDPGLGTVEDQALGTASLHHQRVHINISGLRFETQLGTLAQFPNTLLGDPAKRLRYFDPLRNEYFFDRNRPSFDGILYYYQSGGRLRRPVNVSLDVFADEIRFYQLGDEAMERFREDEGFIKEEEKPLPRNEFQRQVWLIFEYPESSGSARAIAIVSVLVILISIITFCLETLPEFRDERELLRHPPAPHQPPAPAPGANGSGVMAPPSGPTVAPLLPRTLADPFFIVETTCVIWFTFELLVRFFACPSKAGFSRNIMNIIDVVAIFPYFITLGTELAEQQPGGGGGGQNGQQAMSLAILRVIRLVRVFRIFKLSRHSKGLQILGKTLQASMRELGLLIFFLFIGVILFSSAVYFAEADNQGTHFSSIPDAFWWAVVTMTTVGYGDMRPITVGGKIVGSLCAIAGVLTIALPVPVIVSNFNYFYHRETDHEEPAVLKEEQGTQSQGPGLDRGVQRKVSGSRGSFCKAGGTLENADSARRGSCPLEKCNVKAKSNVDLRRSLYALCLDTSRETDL

SMILES	IC50 [1]	inhibition at 10 µM [2]
CCc1ccc(S(=O)(=O)N(CC(C)C)[C@@H]2c3cc(C(=O)NCCc4ccccc4)ccc3OC(C)(C)[C@H]2O)cc1	320 nM	–
CC1(C)Oc2ccc(C(=O)NCCc3ccccc3)cc2[C@@H](NS(=O)(=O)c2ccc([N+](=O)[O-])cc2)[C@@H]1O	> 1000 nM	–
Cc1cccc(S(=O)(=O)N[C@@H]2c3cc(C(=O)NCCc4ccccc4)ccc3OC(C)(C)[C@H]2O)c1	340 nM	–
CCc1ccc(S(=O)(=O)N[C@@H]2c3cc(S(=O)(=O)NCCc4ccccc4)ccc3OC(C)(C)[C@H]2O)cc1	510 nM	–
CCc1ccc(S(=O)(=O)N[C@H]2c3cc(C(=O)N4CCC[C@@H]4CNc4c(C)cccc4C)ccc3OC(C)(C)[C@@H]2O)cc1	89 nM	–
CCc1ccc(S(=O)(=O)N[C@@H]2c3cc(C(=O)N(CC)[C@@H]4CCN(Cc5ccccc5)C4)ccc3OC(C)(C)[C@H]2O)cc1	210 nM	–
CCc1ccc(S(=O)(=O)N[C@@H]2c3cc(C(=O)NCCc4ccccn4)ccc3OC(C)(C)[C@H]2O)cc1	> 1000 nM	–
CCc1ccc(S(=O)(=O)N[C@H]2c3cc(C(=O)N(CC)[C@@H]4CCN(Cc5ccccc5)C4)ccc3OC(C)(C)[C@@H]2O)cc1	220 nM	–
CCc1ccc(S(=O)(=O)N[C@@H]2c3cc(NC(=O)c4cccc(OC)c4)ccc3C[C@H]2O)cc1	–	21%
CCc1ccc(S(=O)(=O)N[C@@H]2c3cc(CNCCc4ccccc4)ccc3OC(C)(C)[C@H]2O)cc1	240 nM	–
CCc1ccc(S(=O)(=O)N[C@@H]2c3cc(C(=O)N4CCC[C@H]4CNc4c(C)cccc4C)ccc3OC(C)(C)[C@H]2O)cc1	120 nM	9%
CCc1ccc(S(=O)(=O)N[C@@H]2c3cc(C(=O)N(CC)Cc4ccccc4F)ccc3OC(C)(C)[C@H]2O)cc1	170 nM	7%
CCc1ccc(S(=O)(=O)N[C@H]2c3cc(C(=O)N(CC)[C@H]4CCN(Cc5ccccc5)C4)ccc3OC(C)(C)[C@@H]2O)cc1	200 nM	80%
CC1(C)Oc2ccc(C(=O)NCCc3ccccc3)cc2[C@@H](NS(=O)(=O)c2ccc(F)cc2)[C@@H]1O	> 1000 nM	–
CCc1ccc(S(=O)(=O)N[C@@H]2c3cc(C(=N)NCCc4ccccc4)ccc3OC(C)(C)[C@H]2O)cc1	> 10000 nM	–
Cc1ccc(S(=O)(=O)N[C@@H]2c3cc(C(=O)NCCc4ccccc4)ccc3OC(C)(C)[C@H]2O)cc1	400 nM	–
CC1(C)Oc2ccc(C(=O)NCCc3ccccc3)cc2[C@@H](NS(=O)(=O)c2ccccc2OC(F)(F)F)[C@@H]1O	150 nM	–
CCc1ccc(S(=O)(=O)N[C@@H]2c3cc(C(=O)n4nc(-c5ccccc5)cc4N)ccc3OC(C)(C)[C@H]2O)cc1	79 nM	47%
CCc1ccc(S(=O)(=O)N[C@@H]2c3cc(C(=O)Nc4ccccc4)ccc3OC(C)(C)[C@H]2O)cc1	260 nM	–
CCc1ccc(S(=O)(=O)N[C@H]2c3cc(C(=O)NCCc4ccccc4)ccc3OC(C)(C)[C@@H]2O)cc1	> 1000 nM	–
CCc1ccc(S(=O)(=O)N[C@H]2CC(C)(C)Oc3ccc(C(=O)N4CCC[C@H]4CNc4c(C)cccc4C)cc32)cc1	110 nM	51%
CCc1ccc(S(=O)(=O)N[C@@H]2c3cc(C(=O)N(CC)CCNc4ccccc4)ccc3OC(C)(C)[C@H]2O)cc1	77 nM	39%

Further lines, with some results ahead:

IC50 [1]	SMILES	inhibition at 10 µM [2]
130 nM	CCc1ccc(S(=O)(=O)N[C@@H]2c3cc(C(=O)N4CCC[C@@H]4CNc4c(C)cccc4C)ccc3OC(C)(C)[C@H]2O)cc1	–
120 nM	CCc1ccc(S(=O)(=O)N(CC(C)(C)C)[C@@H]2c3cc(C(=O)NCCc4ccccc4)ccc3OC(C)(C)[C@H]2O)cc1	–
200 nM	CC1(C)Oc2ccc(C(=O)NCCc3ccccc3)cc2[C@@H](NS(=O)(=O)c2ccc(C(F)(F)F)cc2)[C@@H]1O	–
280 nM	CCc1ccc(S(=O)(=O)N[C@@H]2c3cc(C(=O)N(C)c4ccccc4)ccc3OC(C)(C)[C@H]2O)cc1	–
290 nM	CCc1ccc(S(=O)(=O)N[C@@H]2c3cc(NC(=O)c4cccc(OC)c4)ccc3OC(C)(C)[C@H]2O)cc1	40%
260 nM	CCc1ccc(S(=O)(=O)N[C@@H]2c3cc(C(=O)NCCc4ccccc4)ccc3OC(C)(C)[C@H]2O)cc1	–
170 nM	CCc1ccc(S(=O)(=O)N[C@@H]2c3cc(C(=O)N(CC)[C@H]4CCN(Cc5ccccc5)C4)ccc3OC(C)(C)[C@H]2O)cc1	–
> 1000 nM	CC1(C)Oc2ccc(C(=O)NCCc3ccccc3)cc2[C@@H](NS(=O)(=O)c2ccccc2)[C@@H]1O	–
130 nM	CCc1ccc(S(=O)(=O)N(Cc2cccnc2)[C@@H]2c3cc(C(=O)NCCc4ccccc4)ccc3OC(C)(C)[C@H]2O)cc1	61%
260 nM	CCc1ccc(S(=O)(=O)N[C@H]2c3cc(C(=O)N4CCC[C@H]4CNc4c(C)cccc4C)ccc3OC(C)(C)[C@@H]2O)cc1	–
> 10000 nM	CCc1ccc(S(=O)(=O)N[C@@H]2c3cc(C(=O)Nc4cccc(OC)c4)ccc3OC(C)(C)[C@H]2O)cc1	–
> 1000 nM	COc1ccc(S(=O)(=O)N[C@@H]2c3cc(C(=O)NCCc4ccccc4)ccc3OC(C)(C)[C@H]2O)cc1	–
> 10000 nM	CCc1ccc(S(=O)(=O)N[C@@H]2c3cc(C(=O)NCCc4c[nH]cn4)ccc3OC(C)(C)[C@H]2O)cc1	–
120 nM	CCc1ccc(S(=O)(=O)N(Cc2ccccn2)[C@@H]2c3cc(C(=O)NCCc4ccccc4)ccc3OC(C)(C)[C@H]2O)cc1	–
280 nM	CCc1ccc(S(=O)(=O)N(Cc2cnc[nH]2)[C@@H]2c3cc(C(=O)NCCc4ccccc4)ccc3OC(C)(C)[C@H]2O)cc1	–
57 nM	CCCCN([C@@H]1c2cc(C(=O)NCCc3ccccc3)ccc2OC(C)(C)[C@H]1O)S(=O)(=O)c1ccc(CC)cc1	35%
